Measured values published in US20230310542A1, “EPIGENETIC MODIFIERS TO TREAT RETINAL DEGENERATIONS” (priority 2022, published 2023).

What was measured:
Format in all cases: in vivo, mouse
rd10 mice [1] = assay: Rod photoreceptor preservation in rd10 mice (photoreceptor rows in ONL, immunofluorescence)
Description: All inhibitors were diluted in 0.9% bacteriostatic sodium chloride (saline).
Retinas were fixed in 4% paraformaldehyde overnight at 4° C., washed in PBS, incubated in 5% sucrose/PBS for 30 min and then cryopreserved in 20% sucrose/PBS overnight at 4° C. Retinas were embedded in 2:1 mix of 20% sucrose and OCT (Sakura Finetek Torrance, CA) and stored at −80° C. Blocks with tissue samples were sectioned to 7-10 μm on a Cryostat Microtome HM550 (Thermo Fisher Scientific) and stored at −20° C. Antigen retrieval was performed by incubating the slides in 10 mM sodium citrate pH 6 for 30 min at 80° C. Double labeling immunohistochemistry was performed using fluorescent Alexa Fluor-conjugated secondary antibodies diluted 1:800 (Invitrogen, Carlsbad, California). Primary antibodies were diluted as follow: anti-H3K4me2 1:600, anti-H3K9me2 1:600, anti-RHO 1:50, anti-OPN1SW 1:400, anti-GFAP 1:1000, anti-IBA1 1:450 (AifI gene). […] The acquisition parameters were maintained constant for each set of experiments. Fluorescence intensity was assessed using ImageJ software (Bethesda, MD).

rd10 mice [2] = assay: Visual function by OptoMotry optomotor reflex; conditions: GSK ESD
Description: A Cerebral Mechanics OptoMotry system (CerebralMechanics Inc.) was used to evaluate visual function in control and GSK ESD rd10 mice. Spatial frequency (SF) threshold and contrast sensitivity (CS) were assessed using a video camera to monitor optomotor reflex. CS was assessed at a SF of 0.092 cycles/degree. SF was assessed at 100% contrast. The CS and SF thresholds were identified as the highest values that elicited the reflexive head movement. […] CS were measured three times on PN33-35, when control mice were blind.

rd10 mice retina = assay: RT-PCR retinal gene expression, rd10 mice
Description: Whole retinas were isolated from animals by removing the sclera and most of the retinal pigmented epithelium (RPE) layer under PBS. The right eye retinas from each animal were taken for RNA extraction, cDNA preparation and RT-PCR. Immediately after isolation, tissue was flash frozen in liquid nitrogen and stored at −80° C. Left eye retinas from each animal were subjected to fixation, cryopreservation, sectioning, and immunofluorescence staining. RNA extraction and purification followed the manufacturer's protocol from RNeasy Mini Kit and RNA shredder (Qiagen). […] Primers purchased from Integrated DNA Technologies (IDT). For quantitative real-time PCR we used 2× iQ-SYBR Green PCR supermix from Bio-Rad. Samples in triplicate were run on an iQ5 Multicolor Real Time PCR Detection System (Bio-Rad). The relative expression level for each gene was calculated by the 2-ΔΔCt method and normalized to GAPDH.

Pde6b protein = assay: Anti-PDE6B Western blot of retina; conditions: rd10 mice, GSK PN9 till PN24 vs saline
Description: (§1) Both retinas from one animal were flash frozen together in liquid nitrogen and stored at −80° C. Samples for SDS-PAGE were prepared by resuspended retinas in 50 μl PBS. Laemmli sample buffer was added, samples were boiled for 10 min, resolved on Criterion TGX Precast Gel AnyKD (Bio-Rad), transferred to nitrocellulose membrane, and immunoblotted with antibodies anti-H3K9me2 or anti-H3K4me2 diluted 1:5000; anti-ACTB diluted 1:10000; anti-PDE6B (1:500). Secondary goat anti-rabbit/mouse HRP (Jackson Immuno-Research Laboratory, West Grove, PA) was diluted 1:5000. An ECL western blot detection system (Thermo Fisher Scientific) was used to visualize the bound of the primary antibody.

rod nuclei = assay: Number of heterochromatin foci in rod nuclei, rd10 mice; conditions: rd10 + GSK, PN24
H3K4me2, H3K9me2 [3] = assay: Anti-H3K4me2 and anti-H3K9me2 Western blot of WT retina; conditions: WT mice treated PN9 till PN24
Description: as §1

H3K4me2, H3K9me2 [4] = assay: Chromatin immunoprecipitation (ChIP) on gene regulatory elements, WT retina; conditions: WT mice, GSK PN9 till PN24
Description: Lysate preparation for ChIP was carried out. In brief, 10 mouse retinas were rapidly isolated and rinsed in PBS on ice. Cell suspensions in PBS were crosslinked with 1% formaldehyde for 15 min at room temperature, followed by quenching with 1 M glycine, incubation on ice for 5 min, and centrifugation for 7 min at 4,000 rpm at 4° C. Pellets were resuspended in 500 μl L-CHIP buffer (1% SDS, 10 mM EDTA, 50 mM Tris-HCl pH 8.0), 1 mM PMSF and PI, sonicated twice at setting 3 for 10 sec on Sonic Dismembrator (Fisher Scientific, Model 100). Protein concentrations were adjusted to 1 mg/ml with L-CHIP buffer. ChIP was performed and subjected to quantitative PCR, primers for genomic regions are specified in Table 2.

GFAP, IBA1 = assay: Immunofluorescence labeling of GFAP and IBA1 in retina sections; conditions: rd10, treated PN9 till PN24
Description: Fluorescence intensity was assessed using ImageJ software (Bethesda, MD).

rd10 mice [5] = assay: GSK2879552 in artificial tears applied to the eyes of rd10 mice, rod gene expression; conditions: solution in artificial tears, daily to both eyes, 5 μl
Description: A solution of GSK2879552 was prepared in artificial tears and applied daily to both eyes of rd10 mice in a volume of 5 μl.

[6] = GSK PN9 till PN24, compared with WT
[7] = treated PN9 till PN24 vs saline

With `O=C(O)c1ccc(CN2CCC(CN[C@@H]3C[C@H]3c3ccccc3)CC2)cc1` [GSK, GSK2879552] the “rows of photoreceptors remaining in the ONL” value (rd10 mice [1]; GSK 1.5 mg/kg i.p. daily, data not shown) was 5-6 rows, the RHO protein staining (rd10 mice [1]; GSK 4.2 mg/kg PN9 till PN24, vs saline) was “increased” and the “photoreceptor survival with dosing each second day” value (rd10 mice [1]; GSK 4.2 mg/kg each second day (ESD), PN9 till PN24) was “survived to essentially the same extent as with treatment each day”. For the same compound, the “rows of photoreceptors preserved in the ONL at PN24” value (rd10 mice [1]; GSK 4.2 mg/kg i.p. daily PN9 till PN24) was “more than 10 rows”, the “rod degeneration at end of short treatment” value (rd10 mice [1]; GSK from PN9 to PN17, examined at PN17) was “minimal degeneration” and the “rod degeneration one week after ending treatment” value (rd10 mice [1]; GSK from PN9 to PN17, examined at PN24) was “substantial loss of photoreceptors”. The “rod degeneration 21 days after ending treatment” value (rd10 mice [1]; GSK from PN9 to PN24, examined at PN45) was “substantial loss of cells”, the “rod degeneration, late start of treatment” value (rd10 mice [1]; GSK from PN15 to PN24, assayed at PN24) was “blocked further degeneration” and the “contrast sensitivity preserved relative to WT” value (rd10 mice [2]; 0.092 c/d, PN33-35) was “approximately 50%”. For the same compound, the “spatial frequency threshold (acuity)” value (rd10 mice [2]; 100% contrast, PN24-PN32 averaged, untreated around 0.085, WT maximum 0.4) was “around 0.240 cyc/deg”, the contrast sensitivity (rd10 mice [2]; at 0.092 c/d spatial frequency, PN33-35, WT maximum 95%) was 43.4+/−14.6% and the “vision preserved relative to WT acuity” value (rd10 mice [2]; rd10 mice) was “around 60%”. The “acuity over time PN24 to PN32” value (rd10 mice [2]; data not shown) was “slowly increased”, the “expression of cone genes except S-opsin” value (rd10 mice retina; GSK ESD PN9 till PN24) was “increased to WT levels” and the “expression of Rho, Prph2, Nr2e3, Nrl, and Pde6b” value (rd10 mice retina; [6]) was “increased dramatically and reached WT level”. The “expression of Sag, Rom1, Crx, Cnga1 and Cngb1” value (rd10 mice retina; [6]) was “increased, but not to the WT level”, the “RNA levels of H2-Aa, C1qa, Aif1 and Cx3cr1” value (rd10 mice retina; GSK PN9 till PN24 vs saline) was “reduced” and the “expression of cone markers” value (rd10 mice retina; GSK daily, PN24, rd10 slightly lower than WT) was “did not change it”. The “gene expression of INL cell types” value (rd10 mice retina; GSK from PN30 till PN40, assayed PN40) was “did not change”, the “expression of Rgr and Hes5” value (rd10 mice retina; GSK treatment of rd10 mice) was “increase” and the “expression of rod photoreceptor genes relative to GAPDH” value (rd10 mice retina; treated PN9 till PN24, assayed PN24, vs saline) was “increased expression of almost all rod genes”. The “expression of most other retina cell type markers” value (rd10 mice retina; treated PN9 till PN24, except Rgr and Hes5) was “appeared to be decreased”, the “expression of Capn2 and Aifm1” value (rd10 mice retina; [7]) was “somewhat decreased” and the “expression of apoptotic specific genes Bcl2, Apaf1, and Casp9” value (rd10 mice retina; [7]) was “slightly decreased”. The “expression of cone genes Thrb or Gnat2” value (rd10 mice retina; [7]) was “slightly up-regulated”, the “Pde6b protein in retina” value (Pde6b protein) was “three-fold increase” and the “rod nuclei with three foci” value (rod nuclei; untreated rd10 3%) was 20%. For the same compound, the “rod nuclei with two foci” value (rod nuclei; untreated rd10 26%) was 45%, the “rod nuclei with one focus” value (rod nuclei; untreated rd10 72%) was 35% and the “global levels of H3K4me2” value (H3K4me2, H3K9me2 [3]) was “did not change significantly”. The “global levels of H3K9me2” value (H3K4me2, H3K9me2 [3]) was “No changes”, the “H3K4me2 at promoters/regulatory elements (Ccnd1, Sox2, Hes1, Rho, Pde6b)” value (H3K4me2, H3K9me2 [4]) was “increase in the methylation of H3K4” and the “H3K9me2 at regulatory elements of progenitor TF and rod specific genes” value (H3K4me2, H3K9me2 [4]) was “losing this inhibitory mark”. For the same compound, the “Gfap gene expression and GFAP protein labeling (gliosis)” value (GFAP, IBA1) was “reductions in Muller cell activation”, the “IBA1 labeling (microglia)” value (GFAP, IBA1; levels remained above WT) was “decreased” and the “rod specific gene expression after topical application” value (rd10 mice [5]) was “Several rod specific genes were upregulated”.
